Data from patent US5168101A, “Sulfonamide derivatives” (Ono Pharmaceutical Co., Ltd., priority 1987, dated 1992).

Tests used:
[1] = test system: increasing of blood pressure in guinea pigs; assay: Stimulatory effect on increasing of blood pressure in guinea pigs (agonistic effect on TXA2); type: in vivo; conditions: 100 μg/kg, i.v. (n = 2~4)
From the text: (§1) For example, in a standard laboratory test, the effects were possible to be confirmed by (i) inhibitory effect on increasing of blood pressure induced by STA2 in guinea pigs (antagonistic effect) and (ii) stimulatory effect on increasing of blood pressure in guinea pigs (agnostic effect).
(§2) Inhibitory effect on increasing of blood pressure induced by TXA2 in guinea pigs and stimulatory effect on increasing of blood pressure in guinea pigs: A 7% sodium bicarbonate buffer solution (pH 7.6~8.6) of each tested compounds was administered intravenously via carotid vein or orally to a urethane-anaesthetized male guinea pig weighing 250~350 g, at a rate of 100 μg/kg animal body weight. Increasing of blood pressure was measured in guinea pigs administered test compounds intravenously. On the other hand, to guinea pigs administered test compounds orally, then a solution of STA2 in phosphate buffer (pH 7.4) was administered. Change of the blood pressure was measured at carotid artery and then inhibition ratio (%) was calculated.

[2] = test system: increasing of blood pressure induced by STA2; assay: Inhibitory effect on increasing of blood pressure induced by STA2 in guinea pigs; type: in vivo; conditions: 100 μg/kg
Method: (iii) Inhibitory effect on increasing of blood pressure induced by STA2 in guinea pigs: A 7% sodium bicarbonate buffer solution (pH 7.6-8.6) of each tested compounds was administered intravenously via carotid vein or orally to a urethane-anaesthetized male guinea pig weighing 250~350 g, at a rate of 10-1000 μg/kg animal body weight. And then guinea pigs were administered intravenously a solution of STA2 in phosphate buffer (pH 7.4). change of the blood pressure was measured at carotid artery and then inhibition ratio (%) was calculated.
as §1, §2

[3] = test system: platelet aggregation induced by STA2 in human blood; assay: Inhibitory effect on platelet aggregation induced by STA2 in human blood; type: cell-based; conditions: platelet aggregation induced by STA2 in human blood (platelet rich plasma, method of Born); read-out: Inhibitory effects on platelet aggregation (IC50)
From the text: For example, in a standard laboratory test, the effects were possible to be confirmed by (i) inhibitory effect on platelet aggregation induced by STA2 (9α, 11α-epithio-15α-hydroxy-11α-carbathromba-5Z,13E-dienoic acid) in human blood, (ii) inhibitory effect on contraction of smooth muscle induced by STA2 in guinea pigs or (iii) inhibitory effect on increasing of blood pressure induced by STA2 in guinea pigs (intravenously and orally).
(i) Inhibitory effect on platelet aggregation induced by STA2 in human blood: Whole blood of healthy human adult was collected with citric acid, and the mixture (20 ml) was centrifuged (180×g) for 10 min. The supernatant obtained was diluted with sufficient platelet poor plasma to obtain plasma which contains 300,000 platelet cells power μl. A solution of tested compound in ethanol (1 μl) was added to the obtained plasma (250 μl), and then a solution of STA2 is ethanol was added to the mixtures. The measurement was carried out followed by the method of Born and then IC50 was calculated.

Row | IC50 [3] | SMILES | (ii) Effect of increasing of blood pressure in guinea pig [1] | (i) Duration of more than 50% inhibit increasing of blood pressure induced STA2 pig [2]
1 | 660 nM | O=C(O)CCC/C=C\[C@H]1C[C@@H]2CC[C@H]1[C@@H](NS(=O)(=O)c1ccc(Br)cc1)C2 (relative stereo) [1 (a), (5Z)-6-[(1R*, 2R*, 4S*, 6S*)-6-(4-bromobenzenesulfonylamino)bicyclo[2.2.2]octan-2-yl]hex-5-enoic acid] |  | 
2 | 1000 nM | O=C(O)CCC/C=C\[C@H]1C[C@@H]2C[C@H]1[C@@H](NS(=O)(=O)c1ccc(Br)cc1)C2 (relative stereo) [1 (c), (5Z)-6-[(1R*, 2R*, 4R*, 6S*)-6-(4-bromobenzenesulfonylamino)bicyclo[2.2.1]heptan-2-yl]hex-5-enoic acid] |  | 
3 | 170 nM | O=C(O)CCC/C=C\[C@@H]1CCC[C@H](NS(=O)(=O)c2ccc(Br)cc2)C1 (relative stereo) [1 (m), (5Z)-6-[(1R*, 3S*)-3-(4-bromobenzenesulfonylamino)cyclohexyl]hex-5-enoic acid] |  | 
4 | 90 nM | Cc1ccc(S(=O)(=O)NC[C@H]2[C@H]3CC[C@H](C3)[C@@H]2/C=C\CCCC(=O)O)cc1 (relative stereo) [1 (p), (5Z)-6-[(1R*, 2R*, 3S*, 4S*)-3-[N-tosylaminomethyl]bicyclo[2.2.1]heptan-2-yl]hex-5-enoic acid] |  | 
5 | 520 nM | O=C(O)CCC/C=C\[C@H]1CCCC[C@@H]1CNS(=O)(=O)c1ccc(Br)cc1 (relative stereo) [1 (t), (5Z)-6-[(1R*, 2S*,)-2-[N-(4-bromobenzenesulfonyl)aminometh-yl]cyclohexan-1-yl]hex-5-enoicacid] |  | 
6 | 220 nM | O=C(O)CCC/C=C\[C@H]1CCC[C@@H]1CNS(=O)(=O)c1ccc(Br)cc1 (relative stereo) [1 (v), (5Z)-6-[(1R, 2S*)-2-[N-(4-bromobenzenesulfonyl)aminomethyl]cyclopentan-1-yl]hex-5-enoic acid] |  | 
7 | 680 nM | Cc1ccc(S(=O)(=O)NC[C@H]2CCC[C@@H]2/C=C\CCCC(=O)O)cc1 (relative stereo) [1 (w), (5Z)-6-[(1R, 2S*)-2-[N-tosylaminomethyl]cyclopentan-1-yl]hex-5-enoic acid] |  | 
8 | 1780 nM | Cc1ccc(S(=O)(=O)N[C@@H]2C[C@@H]3C[C@H](C/C=C\CCCC(=O)O)[C@H]2C3)cc1 (relative stereo) [4 (a)] |  | 
9 | 30 nM | O=C(O)CCC/C=C\[C@@H]1CC[C@H](NS(=O)(=O)c2ccc(Br)cc2)C1 [1 (i), (5Z)-6-[(1R, 3S)-3-(4-bromobenzenesulfonylamino)cyclopentyl]hex-5-enoic acid] |  | 
10 | 1670 nM | O=C(O)CCC/C=C\[C@H]1[C@@H]2CC[C@@H](C2)[C@@H]1CNS(=O)(=O)c1ccccc1 [1 (q), (5Z)-6-[(1R, 2R, 3S, 4S)-3-(N-benzenesulfonylaminomethyl)bicyclo[2.2.1]heptan-2-yl]hex-5-enoic acid] |  | 
11 | 280 nM | O=C(O)CCC/C=C\[C@H]1[C@@H]2CC[C@@H](C2)[C@@H]1CNS(=O)(=O)c1ccc(Br)cc1 [1 (r), (5Z)-6[(1R, 2R, 3S, 4S)-3-[N-(4-bromobenzenesulfonyl)aminomethyl]bicyclo[2.2.1]heptan-2-yl]hex-5-enoic acid] |  | 
12 | 520 nM | Cc1ccc(S(=O)(=O)NCC2C3CCC(C3)C2C=CCCCC(=O)O)cc1 [1 (s), (5Z)-6-[(1S, *2S*, 3S*, 4R*)-3-[N-tosylaminomethyl]bicyclo[2.2.1]heptan-2-yl]hex-5-enoic acid] |  | 
13 | 1000 nM | O=C(O)CCC/C=C\[C@H]1[C@@H]2CC[C@@H](C2)[C@@H]1CCNS(=O)(=O)c1ccc(Br)cc1 [1 (u), (5Z)-6-[(1R, 2R, 3S, 4S)-3-[2-[N-(4-bromobenzenesulfonyl)amino]ethyl]bicyclo[2.2.1]heptan-2-yl]hex-5-enoic acid] |  | 
14 | 50 nM | Cc1ccc(S(=O)(=O)NC[C@@H]2[C@@H]3CC[C@@H](C3)[C@H]2/C=C\CCCC(=O)O)cc1 [1 (x), (5Z)-6-[(1S, 2S, 3R, 4R)-3-[N-tosyl-aminomethyl]bicyclo[2.2.1]heptan-2-yl]hex-5-enoic acid] |  | 

Second part, the compound before the results:

Row | SMILES | IC50 [3] | (ii) Effect of increasing of blood pressure in guinea pig [1] | (i) Duration of more than 50% inhibit increasing of blood pressure induced STA2 pig [2]
15 | Cc1ccc(S(=O)(=O)N[C@H]2[C@H]3CC[C@H](C3)[C@@H]2C/C=C\CCCC(N)=O)cc1 |  | 9 mmHg | > 340 min
16 | O=C(O)CCC/C=C\[C@@H]1[C@H]2CC[C@H](C2)[C@H]1CNS(=O)(=O)c1ccc(Br)cc1 [1 (y), (5Z)-6-[(1S, 2S, 3R, 4R)-3-[N-(4-bromobenzenesulfonyl)aminomethyl]bicyclo[2.2.1]heptan-2-yl]hex-5-enoic acid] | 10 nM |  | 
17 | CCCCCCCCOC(=O)CCC/C=C\[C@@H]1[C@H]2CC[C@H](C2)[C@H]1CNS(=O)(=O)c1ccc(Br)cc1 [5 (g), octyl(5Z)-6-[(1S, 2S, 3R, 4R)-3-[N-(4-bromobenzenesulfonyl)aminomethyl]bicyclo[2.2.1]heptan-2-yl]hex-5-enoate] |  | 1 mmHg | > 300 min
18 | CC(C)[C@@H]1CC[C@@H](C)C[C@H]1OC(=O)CCC/C=C\[C@@H]1[C@H]2CC[C@H](C2)[C@H]1CNS(=O)(=O)c1ccc(Br)cc1 [5 (h), menthyl(5Z)-6-[(1S, 2S, 3R, 4R)-3-[N-(4-bromobenzenesulfonyl)aminomethyl]bicyclo[2.2.1]heptan-2-yl]hex-5-enoate] |  | 1 mmHg | > 300 min
19 | NC(=O)CCC/C=C\[C@@H]1[C@H]2CC[C@H](C2)[C@H]1CNS(=O)(=O)c1ccc(Br)cc1 [6 (d), (5Z)-6-[(1S, 2S, 3R, 4R)-3[N-(4-bromobenzenesulfonyl)aminomethyl]bicyclo[2.2.1]heptan-2-yl]hex-5-enamide] |  | 6 mmHg | > 240 min
20 | Cc1ccc(S(=O)(=O)N[C@H]2[C@H]3CC[C@H](C3)[C@@H]2C/C=C\CCCC(=O)NC(C)C(=O)O)cc1 (stereo partly drawn) [7 (b), amide of (5Z)-7-[(1R, 2S, 3S, 4S)-3-tosylaminobicyclo[2.2.1]heptan-2-yl]hept-5-enoic acidand alanine] |  | 11 mmHg | > 290 min
21 | Cc1ccc(S(=O)(=O)N[C@H]2[C@H]3CC[C@H](C3)[C@@H]2C/C=C\CCCC(=O)NC(CCC(=O)O)C(=O)O)cc1 (stereo partly drawn) [7 (c), amide of (5Z)-7-[(1R, 2S, 3S, 4S)-3-tosylaminobicyclo[2.2.1]heptan-2-yl]hept-5-enoic acidand glutamic acid] |  | 7 mmHg | > 290 min
22 | Cc1ccc(S(=O)(=O)N[C@H]2[C@H]3CC[C@H](C3)[C@@H]2C/C=C\CCCC(=O)NCC(=O)O)cc1 [Example 7, Amide of (5Z)-7-[(1R, 2S, 3S, 4S)-3-tosylaminobicyclo [2.2.1]heptan-2-yl]hept-5-enoic acid and glycine] |  | 9 mmHg | > 270 min
23 | Cc1ccc(S(=O)(=O)N[C@H]2[C@H]3CC[C@H](C3)[C@@H]2C/C=C\CCCC(=O)N[C@@H](CCCCN)C(=O)O)cc1 [Example 8, Amide of (5Z)-7-[(1R, 2S, 3S, 4S)-3-tosylaminobicyclo [2.2.1]heptan-2-yl]hept-5-enoic acid and lysine] |  | 7 mmHg | 305 min
24 | Cc1ccc(S(=O)(=O)N[C@H]2[C@H]3CC[C@H](C3)[C@@H]2C/C=C\CCCC(=O)O)cc1 [The compared compound, reference compound] |  | 36 mmHg | 205 min
